Laboratory results published in ChEMBL document CHEMBL3885861, “Open TG-GATES”.

Species: Rattus norvegicus
Test: Open TG-GATES - Regimen: Daily Repeat
Type: toxicity, organism-based, Sprague-Dawley
Parameters: regimen Daily Repeat, gender Male, age 6 weeks
Conditions: in vivo, po, 300 mg/kg, route gavage, dose level Middle; for APTT / Bas / Eos / Fbg / Hb / Ht / Lym / MCH / MCHC / MCV / Mono / Neu / PT / Plat / RBC / Ret / WBC: tissue Blood; for KIDNEY_L / KIDNEY_R / KIDNEY_TOTAL: tissue Kidney; for LIVER: tissue Liver; for A/G / ALP / ALT / AST / BUN / CRE / Ca / Cl / DBIL / GLC / IP / K / LDH / Na / PL / RALB / TBIL / TC / TG / TP / gamma-GTP: tissue Plasma

SMILES: O=C(O)c1cc(/N=N/c2ccc(S(=O)(=O)Nc3ccccn3)cc2)ccc1O [SULFASALAZINE]
- TERMINAL_BW (72 h, time 3 day): 236.9 g
- APTT (72 h, time 3 day): 18.6 s
- Bas (72 h, time 3 day): 0%
- Eos (72 h, time 3 day): 1%
- Fbg (72 h, time 3 day): 213 mg/dL
- Hb (72 h, time 3 day): 13.2 g/dL
- Ht (72 h, time 3 day): 38.4%
- Lym (72 h, time 3 day): 81.6%
- MCH (72 h, time 3 day): 21.8 pg
- MCHC (72 h, time 3 day): 34.5%
- MCV (72 h, time 3 day): 63.2 fL
- Mono (72 h, time 3 day): 2.2%
- Neu (72 h, time 3 day): 14%
- PT (72 h, time 3 day): 12.5 s
- Plat (72 h, time 3 day): 146.1 x10_4/uL
- RBC (72 h, time 3 day): 607.4 x10_4/ul
- Ret (72 h, time 3 day): 5.7%
- WBC (72 h, time 3 day): 109.3 x10_2/uL
- KIDNEY_L (72 h, time 3 day): 1 g
- KIDNEY_R (72 h, time 3 day): 1 g
- KIDNEY_TOTAL (72 h, time 3 day): 2 g
- LIVER (72 h, time 3 day): 11.1 g
- A/G (72 h, time 3 day): 1.5
- ALP (72 h, time 3 day): 1050.4 IU/L
- ALT (72 h, time 3 day): 37 IU/L
- AST (72 h, time 3 day): 69.6 IU/L
- BUN (72 h, time 3 day): 16.4 mg/dL
- CRE (72 h, time 3 day): 0.4 mg/dL
- Ca (72 h, time 3 day): 10.9 mg/dL
- Cl (72 h, time 3 day): 103.2 meq/L
- DBIL (72 h, time 3 day): 0.092 mg/dL
- GLC (72 h, time 3 day): 202.6 mg/dL
- IP (72 h, time 3 day): 6.8 mg/dL
- K (72 h, time 3 day): 3.9 meq/L
- LDH (72 h, time 3 day): 257.2 IU/L
- Na (72 h, time 3 day): 141 meq/L
- PL (72 h, time 3 day): 156.6 mg/dL
- RALB (72 h, time 3 day): 3.4 g/dL
- TBIL (72 h, time 3 day): 0.2 mg/dL
- TC (72 h, time 3 day): 81 mg/dL
- TG (72 h, time 3 day): 86.6 mg/dL
- TP (72 h, time 3 day): 5.6 g/dL
- gamma-GTP (72 h, time 3 day): 1.4 IU/L
- TERMINAL_BW ([…], time 7 day): 264.7 g
- TERMINAL_BW ([…], time 14 day): 309.2 g
- TERMINAL_BW ([…], time 28 day): 365.3 g
- APTT ([…], time 7 day): 18.5 s
- Bas ([…], time 7 day): 0%
- Eos ([…], time 7 day): 1%
- Fbg ([…], time 7 day): 212.4 mg/dL
- Hb ([…], time 7 day): 13.6 g/dL
- Ht ([…], time 7 day): 39.4%
- Lym ([…], time 7 day): 79.4%
- MCH ([…], time 7 day): 21.4 pg
- MCHC ([…], time 7 day): 34.5%
- MCV ([…], time 7 day): 62 fL
- Mono ([…], time 7 day): 2.6%
- Neu ([…], time 7 day): 15.6%
- PT ([…], time 7 day): 12.9 s
- Plat ([…], time 7 day): 124.9 x10_4/uL
- RBC ([…], time 7 day): 636.2 x10_4/ul
- Ret ([…], time 7 day): 5.3%
- WBC ([…], time 7 day): 123 x10_2/uL
- APTT ([…], time 14 day): 18.5 s
- Bas ([…], time 14 day): 0%
- Eos ([…], time 14 day): 1%
- Fbg ([…], time 14 day): 214.6 mg/dL
- Hb ([…], time 14 day): 14.8 g/dL
- Ht ([…], time 14 day): 41.7%
- Lym ([…], time 14 day): 83.4%
- MCH ([…], time 14 day): 21.2 pg
- MCHC ([…], time 14 day): 35.4%
- MCV ([…], time 14 day): 59.8 fL
- Mono ([…], time 14 day): 2.6%
- Neu ([…], time 14 day): 11.6%
- PT ([…], time 14 day): 12.7 s
- Plat ([…], time 14 day): 114.3 x10_4/uL
- RBC ([…], time 14 day): 698 x10_4/ul
- Ret ([…], time 14 day): 4.3%
- WBC ([…], time 14 day): 109.2 x10_2/uL
- APTT ([…], time 28 day): 18.2 s
- Bas ([…], time 28 day): 0%
- Eos ([…], time 28 day): 1%
- Fbg ([…], time 28 day): 199 mg/dL
- Hb ([…], time 28 day): 15.2 g/dL
- Ht ([…], time 28 day): 42.2%
- Lym ([…], time 28 day): 81.2%
- MCH ([…], time 28 day): 20.1 pg
- MCHC ([…], time 28 day): 35.9%
- MCV ([…], time 28 day): 56 fL
- Mono ([…], time 28 day): 2.4%
- Neu ([…], time 28 day): 14.4%
- PT ([…], time 28 day): 12.8 s
- Plat ([…], time 28 day): 100.8 x10_4/uL
- RBC ([…], time 28 day): 753.6 x10_4/ul
- Ret ([…], time 28 day): 3%
- WBC ([…], time 28 day): 88.7 x10_2/uL
- KIDNEY_L ([…], time 7 day): 1.1 g
- KIDNEY_R ([…], time 7 day): 1.1 g
- KIDNEY_TOTAL ([…], time 7 day): 2.2 g
- KIDNEY_L ([…], time 14 day): 1.2 g
- KIDNEY_R ([…], time 14 day): 1.2 g
- KIDNEY_TOTAL ([…], time 14 day): 2.4 g
- KIDNEY_L ([…], time 28 day): 1.3 g
- KIDNEY_R ([…], time 28 day): 1.3 g
- KIDNEY_TOTAL ([…], time 28 day): 2.6 g
- LIVER ([…], time 7 day): 11.8 g
- LIVER ([…], time 14 day): 13 g
- LIVER ([…], time 28 day): 13.6 g
- A/G ([…], time 7 day): 1.7
- ALP ([…], time 7 day): 838.8 IU/L
- ALT ([…], time 7 day): 36.8 IU/L
- AST ([…], time 7 day): 66.2 IU/L
- BUN ([…], time 7 day): 15.8 mg/dL
- CRE ([…], time 7 day): 0.4 mg/dL
- Ca ([…], time 7 day): 10.7 mg/dL
- Cl ([…], time 7 day): 103.6 meq/L
- DBIL ([…], time 7 day): 0.088 mg/dL
- GLC ([…], time 7 day): 213.8 mg/dL
- IP ([…], time 7 day): 7 mg/dL
- K ([…], time 7 day): 3.7 meq/L
- LDH ([…], time 7 day): 186.6 IU/L
- Na ([…], time 7 day): 140.8 meq/L
- PL ([…], time 7 day): 144.4 mg/dL
- RALB ([…], time 7 day): 3.5 g/dL
- TBIL ([…], time 7 day): 0.1 mg/dL
- TC ([…], time 7 day): 70.8 mg/dL
- TG ([…], time 7 day): 83 mg/dL
- TP ([…], time 7 day): 5.6 g/dL
- gamma-GTP ([…], time 7 day): 1.4 IU/L
- A/G ([…], time 14 day): 1.4
- ALP ([…], time 14 day): 901 IU/L
- ALT ([…], time 14 day): 37.2 IU/L
- AST ([…], time 14 day): 64.8 IU/L
- BUN ([…], time 14 day): 18 mg/dL
- CRE ([…], time 14 day): 0.5 mg/dL
- Ca ([…], time 14 day): 10.7 mg/dL
- Cl ([…], time 14 day): 102.8 meq/L
- DBIL ([…], time 14 day): 0.094 mg/dL
- GLC ([…], time 14 day): 190.6 mg/dL
- IP ([…], time 14 day): 7.1 mg/dL
- K ([…], time 14 day): 3.6 meq/L
- LDH ([…], time 14 day): 204.6 IU/L
- Na ([…], time 14 day): 141 meq/L
- PL ([…], time 14 day): 151.2 mg/dL
- RALB ([…], time 14 day): 3.5 g/dL
- TBIL ([…], time 14 day): 0.2 mg/dL
- TC ([…], time 14 day): 70.4 mg/dL
- TG ([…], time 14 day): 105.8 mg/dL
- TP ([…], time 14 day): 6 g/dL
- gamma-GTP ([…], time 14 day): 2 IU/L
- A/G ([…], time 28 day): 1.5
- ALP ([…], time 28 day): 668.8 IU/L
- ALT ([…], time 28 day): 37.4 IU/L
- AST ([…], time 28 day): 63.6 IU/L
- BUN ([…], time 28 day): 18 mg/dL
- CRE ([…], time 28 day): 0.5 mg/dL
- Ca ([…], time 28 day): 10.3 mg/dL
- Cl ([…], time 28 day): 103.8 meq/L
- DBIL ([…], time 28 day): 0.082 mg/dL
- GLC ([…], time 28 day): 214.2 mg/dL
- IP ([…], time 28 day): 6.3 mg/dL
- K ([…], time 28 day): 3.3 meq/L
- LDH ([…], time 28 day): 134.4 IU/L
- Na ([…], time 28 day): 141.8 meq/L
- PL ([…], time 28 day): 128.6 mg/dL
- RALB ([…], time 28 day): 3.5 g/dL
- TBIL ([…], time 28 day): 0.1 mg/dL
- TC ([…], time 28 day): 59.6 mg/dL
- TG ([…], time 28 day): 92.6 mg/dL
- TP ([…], time 28 day): 5.9 g/dL
- gamma-GTP ([…], time 28 day): 1.2 IU/L
